{"source": "patent US6153653A", "about": "“Choline compositions and uses thereof” (Protarga, Inc., priority 1997, dated 2000)", "key": {"Solubility": {"experiment": "Solubility", "assay_type": "physicochemical"}, "Stability": {"experiment": "Stability", "assay_type": "physicochemical", "conditions": "for Stability on exposure in the air (in words): exposed in the air"}, "[1]": {"tested_on": "animal models, clinical trials, models of aging", "conditions": "cited from earlier work"}, "[2]": {"conditions": "in vivo; cited from earlier work"}, "[3]": {"conditions": "cited from earlier work"}, "[4]": {"tested_on": "locomotor activity of mice", "experiment": "Locomotor activity (locomotor depression) study, Digiscan chambers", "assay_type": "in vivo, male Swiss-Webster mice (Hsd:ND4)", "description": "A dose-response study of DHA-choline-induced locomotor depression was conducted using 40 Digiscan locomotor activity testing chambers (40.5×40.5×30.5 cm) housed in sets of two, within sound attenuating chambers. A panel of infrared beams (16 beams) and corresponding photo detectors were located in the horizontal direction along the sides of each activity chamber. A 7.5W incandescent light above each chamber provided dim illumination. Fans provided an 80-dB ambient noise level within the chamber. Separate groups of 8 non-habituated male Swiss-Webster mice (Hsd:ND4, aged 2-3 mo.) were injected via the intraperitoneal route (i.p.) with either vehicle or DHA-choline (0.5, 2.5, 5, 10, 20 or 40 mg/kg), 20 minutes prior to locomotor activity testing. In all studies, the total distance (cm traversed in the horizontal plane) was measured for 2 hours within 10 min periods.\nThe period 0-30 min was selected for analysis of dose-response data because this is the time period in which DHA-choline produced maximal effects. The mean average distance per 10 min for this 30 min period were fit to a linear function of log, dose of the descending portion of the dose-effect curve (0.5 to 40 mg/kg dose range)."}, "[5]": {"tested_on": "MCA occlusions of rat brain", "experiment": "Middle cerebral artery occlusion-reperfusion stroke model, infarct by triphenyltetrazolium chloride staining", "assay_type": "in vivo", "conditions": "for Infarct volume (% of control non-occluded side of brain), Average: vehicle average 35.5", "description": "Two sets of experiments were carried out. In the first set, rats were administered with 50 mg/kg of DHA-choline i.p. at 30 minutes prior to occlusion of the middle cerebral artery of the left side of the brain using a standard highly reproducible animal model of stroke (Karpiak et al., J. Neurosci. Res. 30:512-520, 1991). Occlusion of the middle cerebral artery inhibits blood flow to a major portion of the left cortical and subcortical regions of the brain. After a two hour period, the occluded blood vessel was opened to allow reperfusion of the brain, and anesthesia was terminated. Each animal received additional doses of 50 mg/kg of DHA-choline 24 and 48 hours later.\nThe animals were sacrificed, perfused with formalin fixative, brains were sliced into seven 2 mm thick coronal sections, and stained with triphenyltetrazolium chloride (Watson et al., J. Neurosci. Methods 53:203-208, 1994). In this test, tissue that contains intact mitochondria stains red, whereas dead tissue with damaged mitochondria picks up no stain and remains white. Each unstained area on the left side of a section was measured and compared to the total area of the control non-occluded right side of the same section of the brain. The area of damaged (white) brain tissue cells was calculated as a percent of the intact right side of a section. […] (n=5 per group.)\nIn the second set of experiments (n=5), the identical occlusion-reperfusionrat model was used; only the time of administration of the drug was changed. DHA-choline was injected i.p. at a dose of 50 mg/kg at one hour after the beginning of the reperfusion, i.e., at three hours after the initiation of the stroke event. Controls (n=5) received an injection of the vehicle instead of the drug according to the same protocol."}, "[6]": {"conditions": "relative to tPA; cited from earlier work"}, "[7]": {"conditions": "50 mg/kg i.p. at 30 min prior to occlusion"}}, "note": "Values joined by “and” are separate entries in the source; they are usually repeats but may differ in a detail not shown here. Equal entries are not always repeated. “Also recorded” adds a separate entry of the source."}
{"molecule": "CC/C=C\\C/C=C\\C/C=C\\C/C=C\\C/C=C\\C/C=C\\CCC(=O)OCCN(C)C", "note": "[2-dimethylaminoethyl docosahexaenoate]", "values": [{"measurement": "Solubility (solvents, in words)", "setting": "Solubility", "result": "soluble in EtOAc, Et2 O, CH2 Cl2, CHCl3, EtOH insoluble in H2 O"}, {"measurement": "Stability on exposure in the air (in words)", "setting": "Stability", "result": "turns dark when exposed in the air for several days"}]}
{"molecule": "C[N+](C)(C)CCOP(=O)(O)OP(=O)([O-])OC[C@H]1O[C@@H](n2ccc(N)nc2=O)[C@H](O)[C@@H]1O", "note": "[CDP-choline, Cytidine 5'-diphosphocholine]", "values": [{"measurement": "neuroprotective effect; memory and learning deficits (in words)", "setting": "[1]", "result": "neuroprotective effect in animal models and in clinical trials; also recorded: improves memory and learning deficits in models of aging"}, {"measurement": "release on administration (in words)", "setting": "[2]", "result": "choline and cytidine are released into the systemic circulation"}]}
{"molecule": "CC/C=C\\C/C=C\\C/C=C\\C/C=C\\C/C=C\\C/C=C\\CCC(=O)O", "note": "[DHA, cis-docosahexaenoic acid]", "values": [{"measurement": "Stability in the presence of oxygen (in words)", "setting": "[3]", "result": "can be unstable in the presence of oxygen"}, {"measurement": "crossing the blood-brain barrier (in words)", "setting": "[2]", "result": "unusually effective in crossing the blood-brain barrier"}]}
{"molecule": "CC/C=C\\C/C=C\\C/C=C\\C/C=C\\C/C=C\\C/C=C\\CCC(=O)OCC[N+](C)(C)C", "note": "[DHA-choline, docosahexaenoyl choline iodide]", "values": [{"measurement": "one-way analysis of variance on total distance/10 min, F(6,49)", "setting": "[4]; 0-30 min, overall effect", "result": 10.5}, {"measurement": "time period in which maximal effects were produced", "setting": "[4]; i.p., after 20 min pretreatment", "result": "0 to 30", "unit": "min"}, {"measurement": "Solubility (solvents, in words)", "setting": "Solubility", "result": "soluble in CH2 Cl2, CHCl3, EtOAc, EtOH insoluble in hexanes, Et2 O"}, {"measurement": "decrease in number of dead cells", "setting": "[5]; [7]", "result": "about 50%"}, {"measurement": "Infarct volume (% of control non-occluded side of brain), individual animals", "setting": "[5]; 50 mg/kg i.p. at 30 min prior to occlusion, Group No. 1 to 4", "result": "22 % of control non-occluded side of brain and 19 % of control non-occluded side of brain and 16 % of control non-occluded side of brain and 20 % of control non-occluded side of brain"}, {"measurement": "Infarct volume (% of control non-occluded side of brain), Average", "setting": "[5]; [7]", "result": "19.3 % of control non-occluded side of brain"}, {"measurement": "Infarct volume (% of control non-occluded side of brain), individual animals", "setting": "[5]; 50 mg/kg i.p. at 3 hours after occlusion, Group No. 1 to 5", "result": "15 % of control non-occluded side of brain and 17 % of control non-occluded side of brain and 25 % of control non-occluded side of brain and 21 % of control non-occluded side of brain and 20 % of control non-occluded side of brain"}, {"measurement": "Infarct volume (% of control non-occluded side of brain), Average", "setting": "[5]; 50 mg/kg i.p. at 3 hours after occlusion", "result": "19.6 % of control non-occluded side of brain"}, {"measurement": "decrease in infarct volume", "setting": "[5]; 50 mg/kg i.p. at three hours after initiation of stroke (one hour after beginning of reperfusion)", "result": "approximately 50%"}, {"measurement": "Stability on exposure in the air (in words)", "setting": "Stability", "result": "exposed in the air for 5 days showed that the compound had not decomposed; also recorded: if it is exposed in the air for too long will decompose"}, {"measurement": "Stability on neutral alumina (in words)", "setting": "Stability; purification on neutral alumina, 1H NMR", "result": "will result in other peaks on ^1 H NMR"}]}
{"molecule": "C[N+](C)(C)CCO", "note": "[choline]", "values": [{"measurement": "crossing the blood-brain barrier (in words)", "setting": "[2]", "result": "cross the blood-brain barrier"}]}
{"molecule": "Nc1ccn([C@@H]2O[C@H](CO)[C@@H](O)[C@H]2O)c(=O)n1", "note": "[cytidine]", "values": [{"measurement": "crossing the blood-brain barrier (in words)", "setting": "[2]", "result": "cross the blood-brain barrier"}]}
{"molecule": "tPA conjugated to polyethylene glycol: conjugation of tPA to polyethylene glycol (EP-A304,311)", "values": [{"measurement": "clearance rate (in words)", "setting": "[6]", "result": "reduce the clearance rate of tPA"}]}
